Patent US20030049204A1, “Individualization of therapy with gastroesophageal reflux disease agents” (McGill University, priority 2001, published 2003)
Read-outs that look alike come from different tables or passages of the source. Marks after values point to notes of the source that are not given here.

Columns and labels:
AAMU-Ab = assay: Competitive antigen ELISA, cross-reactivity of AAMU-Ab; format: binding, rabbit; details: 0 = absence of inhibition or inhibition no higher than 40% at highest concentration tested (5 × 10^−3 M)
Experimental: (§1) Four mature females New Zealand white rabbits (Charles River Canada, St-Constant, Que., Canada) are used for antibody production. The protocol employed in this study was approved by the McGill University Animal Care Committee in accordance with the guidelines from the Canadian Council on Animal Care. Antibodies of the present invention may be monoclonal or polyclonal antibodies.
(§2) A 0.5 mL aliquot of the emulsion ([…] of antigen) is injected per rabbit intramuscularly or subcutaneously. Rabbits are subsequently boosted at intervals of three weeks with […] of antigen emulsified in incomplete Freund's adjuvant. […] Antisera are stored at 4° C. in the presence of 0.01% sodium azide.
(§3) Buffers and water without additives are filtered through millipore filters and kept for 1 week. BSA, antibodies, Tween™ 20 and horse radish peroxidase conjugates are added to these buffers and water just prior to use. Urine samples are usually collected 4 hours after drinking a cup of coffee (instant or brewed with approximately 100 mg of caffeine per cup) and stored at −80° C. The urine samples are diluted 10 times with sodium phosphate buffer (620 mosm, pH 7.50) and are subsequently diluted with water to give concentrations of AAMU and 1X no higher than 3×10^−6 M in the ELISA. All the pipettings are done with an eight-channel pipette, except those of the antibody and sample solutions. Starting with the last well, 100 μL of a carbonate buffer (100 mM, pH 9.6) containing 2.5 μg mL-^1 antibodies are added to each well. After 90 min. at room temperature, the wells are washed three times with 100 mL of TPB: isotonic sodium phosphate buffer (310 mosm, pH 7.50) containing 0.05% Tween™ 20.
(§4) After the initial wash, unoccupied sites are blocked by incubation for 90 min. at room temperature with 100 μL TBP containing 3% BSA. The wells are washed four times with 100 μL TPB. […] The microplate is gently shaken with an orbital shaker at room temperature for 3-4 hours. The wells are washed three times with 100 μL TPB containing 1% BSA and three times with water containing 0.05% Tween™ 20. To the washed plate is added 150 μL of a substrate buffer composed of citric acid (25 mM) and sodium phosphate dibasic buffer (50 mM, pH 5.0) containing 0.06% hydrogen peroxide and 0.04% o-phenylenediamine hydrochloride.
as §3, with “were” for “are”, “They were” for “The urine samples are”, “mL^−1” for “mL-^1”, “was pipetted.” for “are added to each well.”, “μL” for “mL”
(§5) After the initial wash, unoccupied sites were blocked by incubation for 90 min. at room temperature with 100 μL TBP containing 3% BSA. The wells were washed four times with 100 μL TPB. […] The microplate was gently shaken with an orbital shaker at room temperature for 3-4 hours. The wells were washed three times with 100 μL with TPB containing 1% BSA and three times with water containing 0.05% Tween™ 20. To the washed plate was added 150 μL of a substrate buffer composed of citric acid (25 mM) and sodium phosphate dibasic buffer (50 mM, pH 5.0) containing 0.06% hydrogen peroxide and 0.04% o-phenylenediamine hydrochloride.

1X-Ab = assay: Competitive antigen ELISA, cross-reactivity of 1X-Ab; format: binding, rabbit; details: 0 = absence of inhibition or inhibition no higher than 40% at highest concentration tested (5 × 10^−3 M)
Experimental: as §1, §2, §3, §4
as §3, with “were” for “are”, “They were” for “The urine samples are”, “mL^−1” for “mL-^1”, “was pipetted.” for “are added to each well.”, “μL” for “mL”
as §5

[1] = cited from earlier work
[2] = especially less severe degrees of esophagitis; cited from earlier work
[3] = cited from earlier work; remark: listed apart in the source
[4] = biological target: serotonin-4 (5-HT4) receptor (Homo sapiens, UniProt Q13639); details: in vitro; cited from earlier work
Chain of serotonin-4 (5-HT4) receptor (Q13639 whole entry, species assumed): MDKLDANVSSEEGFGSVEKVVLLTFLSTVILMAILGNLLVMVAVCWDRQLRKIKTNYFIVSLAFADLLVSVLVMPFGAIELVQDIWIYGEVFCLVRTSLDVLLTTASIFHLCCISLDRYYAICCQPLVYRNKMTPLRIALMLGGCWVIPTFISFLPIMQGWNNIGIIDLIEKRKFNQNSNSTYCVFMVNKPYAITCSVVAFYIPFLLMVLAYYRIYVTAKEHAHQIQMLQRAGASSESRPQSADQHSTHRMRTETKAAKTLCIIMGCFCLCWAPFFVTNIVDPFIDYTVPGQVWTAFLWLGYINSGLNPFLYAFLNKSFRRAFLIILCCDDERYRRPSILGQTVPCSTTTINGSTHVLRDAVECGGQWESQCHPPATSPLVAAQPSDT

[5] = biological target: T1, rapid component of the delayed rectifying K^+ current (lkr) (Oryctolagus cuniculus, UniProt Q8WNY2); details: in vivo anesthetized guinea pig and rabbit; in vitro isolated rabbit preparations; cited from earlier work
T1 construct: in vitro isolated rabbit Purkinje fibers and ventricular papillary muscle and isolated rabbit ventricular myocyte models; from tissue; host or cells: rabbit Purkinje fibers, ventricular papillary muscle and ventricular myocytes; also anesthetized guinea pig and rabbit in vivo
T1 sequence (Q8WNY2 1-1161): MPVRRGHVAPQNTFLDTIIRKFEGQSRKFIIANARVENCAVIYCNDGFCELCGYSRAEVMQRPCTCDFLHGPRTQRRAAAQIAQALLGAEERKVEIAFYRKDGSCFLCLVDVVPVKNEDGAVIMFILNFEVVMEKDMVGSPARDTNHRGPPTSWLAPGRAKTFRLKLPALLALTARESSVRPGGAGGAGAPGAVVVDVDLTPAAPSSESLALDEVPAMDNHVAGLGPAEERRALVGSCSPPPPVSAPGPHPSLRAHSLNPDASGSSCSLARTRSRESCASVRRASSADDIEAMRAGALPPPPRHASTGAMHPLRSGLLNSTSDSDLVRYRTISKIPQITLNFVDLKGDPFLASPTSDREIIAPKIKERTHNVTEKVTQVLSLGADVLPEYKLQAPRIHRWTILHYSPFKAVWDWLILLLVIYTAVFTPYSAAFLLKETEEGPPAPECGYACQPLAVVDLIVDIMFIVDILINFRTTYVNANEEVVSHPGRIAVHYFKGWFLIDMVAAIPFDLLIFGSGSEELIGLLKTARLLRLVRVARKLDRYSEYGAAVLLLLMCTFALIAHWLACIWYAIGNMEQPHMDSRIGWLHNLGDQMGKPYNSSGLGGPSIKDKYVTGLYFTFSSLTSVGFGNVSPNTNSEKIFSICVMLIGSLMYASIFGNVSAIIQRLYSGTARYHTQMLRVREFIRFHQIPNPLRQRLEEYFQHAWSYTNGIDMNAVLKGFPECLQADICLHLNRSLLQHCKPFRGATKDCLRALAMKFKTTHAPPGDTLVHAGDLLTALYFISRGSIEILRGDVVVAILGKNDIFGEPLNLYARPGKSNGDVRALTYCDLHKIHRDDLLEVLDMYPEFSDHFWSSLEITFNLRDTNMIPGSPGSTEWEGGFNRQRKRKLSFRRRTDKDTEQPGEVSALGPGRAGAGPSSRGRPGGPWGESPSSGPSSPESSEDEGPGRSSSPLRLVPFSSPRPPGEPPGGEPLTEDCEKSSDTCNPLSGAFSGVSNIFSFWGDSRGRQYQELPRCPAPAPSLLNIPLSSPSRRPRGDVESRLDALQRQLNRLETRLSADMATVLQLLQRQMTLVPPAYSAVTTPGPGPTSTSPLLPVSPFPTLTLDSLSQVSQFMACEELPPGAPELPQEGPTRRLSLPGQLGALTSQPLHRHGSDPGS

[6] = tested on: plasma proteins, mainly albumin; details: cited from earlier work
[7] = in vivo; cited from earlier work

Row | SMILES | % Cross-Reaction AAMU-Ab (AAMU-Ab) | % Cross-Reaction 1X-Ab (1X-Ab) [%] | further results
1 | Cn1c(=O)[nH]c(=O)c2[nH]cnc21 [3-Methyl Xanthine] | 0% | 0 | –
2 | O=c1cc[nH]c(=O)[nH]1 [Uracil] | 0% | 0 | –
3 | O=c1[nH]c(=O)c2[nH]cnc2[nH]1 [Xanthine] | 0^a % | 0 | –
4 | Cn1cnc2[nH]c(=O)[nH]c(=O)c21 [7-Methyl Xanthine] | 0% | 0 | –
5 | Cn1c(=O)[nH]c2nc[nH]c2c1=O [1-Methyl Xanthine (1X), 1-Methyl Xanthine] | 0% | 100 | –
6 | Nc1nc2nc[nH]c2c(=O)[nH]1 [Guanine] | 0% | 0 | –
7 | Cc1nc2[nH]c(=O)[nH]c(=O)c2[nH]1 [8-Methyl Xanthine] | 0% | 0 | –
8 | Cn1c(=O)c2c(ncn2C)n(C)c1=O [1,3,7-Trimethyl Xanthine (Caffeine), 1,3,7-Trimethyl Xanthine] | 0% | 0 | –
9 | Cn1c(=O)[nH]c2[nH]c(=O)[nH]c2c1=O [1-Methyluric acid] | 0% | 11 | –
10 | Nc1ccc(S(=O)(=O)c2ccc(N)cc2)cc1 [dapsone] | – | – | adverse reactions ([1]; fast acetylators): 17%; adverse reactions ([1]; slow acetylators): 46%
11 | CC(=O)Nc1c(N)n(C)c(=O)n(C)c1=O [5-Acetamino-6-amino-1,3-dimethyluracil] | 0% | 0 | –
12 | O=c1[nH]c(=O)c2[nH]c(=O)[nH]c2[nH]1 [Uric acid] | 0% | 0 | –
13 | Cn1cnc2c1c(=O)[nH]c(=O)n2C [3,7-Dimethyl Xanthine (Theobromine), 3,7-Dimethyl Xanthine] | 0% | 0 | –
14 | COc1cc(N)c(Cl)cc1C(=O)NC1CCN(CCCOc2ccc(F)cc2)CC1OC (centres unmarked) [Cisapride] | – | – | long-term control of GERD, individuals [2]: up to 50%; half-life ([3]; following intravenous (IV) administration): up to 20 hours; absolute bioavailability ([3]; in vivo): 35-40%; plasma clearance ([3]; in vivo): about 100 ml/min; volume of distribution ([3]; in vivo): about 180 L; unmetabolized drug accounted for in urinary and fecal recovery ([3]; oral administration): less than 10%; activity at serotonin-4 (5-HT4) receptor [4]: receptor agonist; effect on cardiac repolarization [5]: prolonged cardiac repolarization without slowing conduction; binding to plasma proteins [6]: 97.5-98%; deaths among reports of heart rhythm abnormalities [7]: 80; diarrhea, individuals affected [7]: about 10%; reports of heart rhythm abnormalities [7]: at least 341
15 | O=c1[nH]cnc2nc[nH]c12 [Hypoxanthine] | 0% | 0 | –
16 | Cn1c(=O)c2[nH]cnc2n(C)c1=O [1,3-Dimethyl Xanthine (Theophylline), 1,3-Dimethyl Xanthine] | 0% | 0.2 | –
17 | Cn1c(=O)[nH]c2ncn(C)c2c1=O [1,7-Dimethyl Xanthine (Paraxanthine), 1,7-Dimethyl Xanthine] | 0% | 0.5 | –
18 | CC(=O)Nc1c(N)[nH]c(=O)[nH]c1=O [5-Acetamino-6-amino-uracil] | 0.6% | 0 | –
19 | Cn1c(=O)[nH]c2[nH]c(=O)n(C)c2c1=O [1,7-Dimethyluric acid] | 0% | 0 | –
20 | CC(=O)Nc1c(N)n(C)c(=O)[nH]c1=O [5-Acetamino-6-amino-1-methyluracil] | 100% | 0 | –
